Assay results taken from patent US12011469B2, “Parenteral delivery device and methods of use” (Vireo Systems, Inc., priority 2017, dated 2024).

Tests used:
[1] = test system: Lactobacilli; conditions: 60 mg hydrogen borate in well, LB-agar, overnight; Lactobacilli added one hour or 12 hours after hydrogen borate
Description: Lactobacillus capsular material (40 mg) was suspended in 1.0 milliliter of LB-broth and 25 microliters was spread on the surface of half of an LB-agar plate. For comparison, the other half of the plate spread with C. albicans. A hole was punched in the middle of the plate and 60 mg of hydrogen borate was added. The plates were incubated overnight and scored for growth and/or a zone of inhibition around the hydrogen borate well.
In some cases, only about a quarter of the LB-agar plate was spread with the L-capsular suspension in which case only 10 microliters was used.

[2] = test system: co-cultures of C. albicans and Lactobacilli; conditions: Lactobacilli added dropwise immediately after C. albicans was spread onto the plate
Description: In some cases, the C. albicans was co-cultured with the Lactobacilli. For this inoculum, equal volumes of the two suspensions of organisms described earlier were mixed and used to spread on LB-agar plates for testing for any effect of the co-culture on the anti-yeast activity of hydrogen borate or any effect on Lactobacillus growth.

[3] = test system: Candida albicans, ATTC number 10231; test: microbe, parasite or virus in culture; conditions: read-out: zone of inhibition against the yeast, Candida albicans
Description: Candida albicans, ATTC number 10231, was used as a test organism. Cultures of C. albicans were grown in a rotator overnight at room temperature in tubes of LB-broth. The cultures contained approximately 1×10^8 organisms per mL. The suspension was diluted 1:1000 in LB-broth and 50 microliters were spread on the surface of a LB-agar plate, i.e., approximately 5,000 organisms.

OB(O)O [hydrogen borate]
effect on the growth of Lactobacilli [1]: did not have an effect
effect of co-culture on the anti-yeast activity of hydrogen borate [2]: did not affect the activity
zone of inhibition at 60000 µg/disc [3]: 45 mm
